Data: patent US10899737B2, “Piperazine carbamates and methods of making and using same” (Lundbeck La Jolla Research Center, Inc., priority 2016, dated 2021)

Legend:
MAGL [1] = target: T1, MAGL (Homo sapiens, UniProt Q99685); test: In vitro competitive activity-based protein profiling (human), MAGL; type: biochemical; conditions: for inhibition at 1 µM: 1 μM inhibitor, human proteome, 30 min preincubation at 37° C, read-out: MAGL % inh. 1 μM (human); for IC50: human PC3
T1 construct: Proteomes (human prefrontal cortex or cell membrane fractions); from tissue
T1 sequence (Q99685 1-303): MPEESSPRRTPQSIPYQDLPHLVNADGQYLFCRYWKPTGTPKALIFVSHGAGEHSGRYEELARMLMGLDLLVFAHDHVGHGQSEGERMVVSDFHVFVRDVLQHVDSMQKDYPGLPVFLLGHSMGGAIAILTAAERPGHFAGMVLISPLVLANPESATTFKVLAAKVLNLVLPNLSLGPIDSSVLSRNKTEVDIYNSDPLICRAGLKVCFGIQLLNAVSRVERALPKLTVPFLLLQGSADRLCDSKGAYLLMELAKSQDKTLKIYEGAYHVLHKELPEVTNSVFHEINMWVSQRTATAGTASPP
Procedure, shortened: (§1)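 Human prefrontal cortex or cell membrane proteomes (1.0-2.0 mg/mL protein) preincubated 30 min at 37° C with inhibitor, then labeled 30 min RT with FP-Rh or JW912 probe. After SDS-PAGE, activity taken from fluorescent band intensity for each enzyme.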

ABHD6 [2] = target: T2, ABHD6 (Homo sapiens, UniProt Q9BV23); test: In vitro competitive activity-based protein profiling (human), ABHD6; type: biochemical; conditions: human PC3
T2 construct: Proteomes (human prefrontal cortex or cell membrane fractions); endogenous in cells; human prefrontal cortex
T2 sequence (Q9BV23 1-337): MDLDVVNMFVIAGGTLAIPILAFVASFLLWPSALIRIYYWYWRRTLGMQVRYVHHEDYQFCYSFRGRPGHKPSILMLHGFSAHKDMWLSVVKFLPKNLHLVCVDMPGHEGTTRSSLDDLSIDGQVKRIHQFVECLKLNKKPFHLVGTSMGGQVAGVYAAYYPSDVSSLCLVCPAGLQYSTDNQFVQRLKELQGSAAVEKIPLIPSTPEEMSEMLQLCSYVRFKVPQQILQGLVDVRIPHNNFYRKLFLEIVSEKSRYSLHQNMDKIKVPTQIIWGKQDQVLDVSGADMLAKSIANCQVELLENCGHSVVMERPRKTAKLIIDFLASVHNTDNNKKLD
Procedure, shortened: as §1

MAGL [3] = target: T3, MAGL (Mus musculus, UniProt O35678); test: In vitro competitive activity-based protein profiling (mouse), MAGL; type: biochemical; conditions: for inhibition at 1 µM: 1 μM inhibitor, mouse brain membrane fraction or cell lysates, read-out: MAGL % inh. 1 μM (mouse); for IC50: mouse proteome
T3 construct: Proteomes (mouse brain membrane fraction or cell lysates); from tissue; host or cells: mouse brain membrane fraction or cell lysates
T3 sequence (O35678 1-303): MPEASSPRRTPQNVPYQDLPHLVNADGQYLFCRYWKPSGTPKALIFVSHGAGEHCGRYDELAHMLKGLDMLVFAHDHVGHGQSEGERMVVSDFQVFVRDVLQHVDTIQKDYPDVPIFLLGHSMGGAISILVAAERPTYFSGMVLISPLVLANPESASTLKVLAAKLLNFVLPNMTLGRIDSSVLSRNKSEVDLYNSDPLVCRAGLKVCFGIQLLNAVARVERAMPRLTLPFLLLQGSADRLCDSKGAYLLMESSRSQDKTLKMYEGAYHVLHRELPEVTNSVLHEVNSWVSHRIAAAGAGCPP
Procedure, shortened: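 Mouse brain membrane fraction or cell lysate proteomes (50 μL, 1.0 mg/mL total protein) were preincubated with inhibitors at varying concentrations for 30 min at 37° C. FP-Rh (1.0 μL, 50 μM in DMSO) was then added for a further 30 min at 37° C. Samples were quenched with 4× SDS loading buffer and resolved by SDS-PAGE. MAGL activity was quantified from fluorescent gel band intensity using ImageJ 1.49 k.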

ABHD6 [4] = target: T4, ABHD6 (Mus musculus, UniProt Q8R2Y0); test: In vitro competitive activity-based protein profiling (mouse), ABHD6; type: biochemical; conditions: 1 μM inhibitor, mouse brain membrane fraction or cell lysates; read-out: ABHD6 % inh. 1 μM (mouse)
T4 construct: Proteomes (mouse brain membrane fraction or cell lysates); from tissue; host or cells: mouse brain membrane fraction or cell lysates
T4 sequence (Q8R2Y0 1-336): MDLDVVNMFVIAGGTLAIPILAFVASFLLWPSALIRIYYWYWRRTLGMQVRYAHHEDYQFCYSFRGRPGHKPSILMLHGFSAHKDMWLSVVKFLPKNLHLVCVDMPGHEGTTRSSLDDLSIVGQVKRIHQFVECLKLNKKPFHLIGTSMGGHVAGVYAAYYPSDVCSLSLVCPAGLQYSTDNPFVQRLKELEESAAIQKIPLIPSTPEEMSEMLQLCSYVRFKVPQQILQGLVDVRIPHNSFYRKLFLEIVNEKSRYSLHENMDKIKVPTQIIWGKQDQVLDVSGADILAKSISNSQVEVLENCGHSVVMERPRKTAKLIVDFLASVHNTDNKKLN
Procedure, shortened: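 Mouse brain membrane proteome or cell lysate (1.0 mg/mL protein) preincubated 30 min at 37 °C with inhibitor, then labelled 30 min at 37 °C with FP-rhodamine probe. Remaining MAGL and ABHD6 activity quantified by in-gel fluorescence band intensity after SDS-PAGE; values are % inhibition at 1 μM.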

MAGL [5] = target: T3, MAGL; test: Mouse brain proteomes from inhibitor treated mice, MAGL inhibition; type: in vivo; conditions: 5 mg/kg oral gavage, C57Bl/6J mouse brain, 4 h following administration; read-out: MAGL % inh. 5 mg/kg (mouse)
Experimental: Preparation of Mouse Brain Proteomes from Inhibitor Treated Mice.
Inhibitors were administered to wild-type C57Bl/6J by oral gavage in a vehicle of polyethylene glycol. Each animal was sacrificed 4 h following administration and brain proteomes were prepared and analyzed according to previously established methods (See Niphakis, M. J., et al. (2011) ACS Chem. Neurosci. and Long, J. Z., et al. Nat. Chem. Biol. 5:37-44).

Structure (SMILES) | inhibition at 1 µM (MAGL [1]) [%] | IC50 (MAGL [1]) [µM] | IC50 (ABHD6 [2]) [µM] | inhibition at 1 µM (MAGL [3]) [%] | inhibition at 1 µM (ABHD6 [4]) [%] | inhibition at 5 mg/kg (MAGL [5]) [%] | IC50 (MAGL [3]) [µM]
O=C(O)Cn1ccc(-c2cc(Cl)ccc2CN2CCN(C(=O)OC(C(F)(F)F)C(F)(F)F)CC2)n1 [Example 12, 2-(3-(5-Chloro-2-((4-(((1,1,1,3,3,3-hexafluoropropan-2-yl)oxy)carbonyl)piperazin-1-yl)methyl)phenyl)-1H-pyrazol-1-yl)acetic Acid] | ≥ 75 | ≤ 0.1 | 0.1 to 1 | ≥ 75 | 0 to 25 | 0 to 25 | 
O=C(O)Cn1ccc(-c2cc(F)ccc2CN2CCN(C(=O)OC(C(F)(F)F)C(F)(F)F)CC2)n1 [Example 13, 2-(3-(5-Fluoro-2-((4-(((1,1,1,3,3,3-hexafluoropropan-2-yl)oxy)carbonyl)piperazin-1-yl)methyl)phenyl)-1H-pyrazol-1-yl)acetic Acid] | ≥ 75 | ≤ 0.1 | 1 to 10 | ≥ 75 | 0 to 25 | 0 to 25 | 
O=C(O)CN1CC2CN(c3cc(C(F)(F)F)ccc3CN3CCN(C(=O)OC(C(F)(F)F)C(F)(F)F)CC3)CC2C1 (stereo not drawn) [Example 15, 2-(5-(2-((4-(((1,1,1,3,3,3-Hexafluoropropan-2-yl)oxy)carbonyl)piperazin-1-yl)methyl)-5-(trifluoromethyl)phenyl)hexahydropyrrolo[3,4-c]pyrrol-2(1H)-yl)acetic Acid] | ≥ 75 | ≤ 0.1 | 1 to 10 | ≥ 75 | 0 to 25 | 0 to 25 | 
O=C(O)CN1CCC2(CC1)CN(c1cc(C(F)(F)F)ccc1CN1CCN(C(=O)OC(C(F)(F)F)C(F)(F)F)CC1)C2 [Example 17, 2-(2-(2-((4-(((1,1,1,3,3,3-Hexafluoropropan-2-yl)oxy)carbonyl)piperazin-1-yl)methyl)-5-(trifluoromethyl)phenyl)-2,7-diazaspiro[3.5]nonan-7-yl)acetic Acid] | ≥ 75 | ≤ 0.1 | 1 to 10 | ≥ 75 | 0 to 25 | 0 to 25 | 
O=C(O)CN1CCC2(CCN(c3cc(C(F)(F)F)ccc3CN3CCN(C(=O)OC(C(F)(F)F)C(F)(F)F)CC3)CC2)C1 [Example 18, 2-(8-(2-((4-(((1,1,1,3,3,3-Hexafluoropropan-2-yl)oxy)carbonyl)piperazin-1-yl)methyl)-5-(trifluoromethyl)phenyl)-2,8-diazaspiro[4.5]decan-2-yl)acetic Acid] | ≥ 75 | ≤ 0.1 | 1 to 10 | ≥ 75 | 50 to 75 | 0 to 25 | ≤ 0.1
O=C(O)CN1CCC2(CC1)CCN(c1cc(C(F)(F)F)ccc1CN1CCN(C(=O)OC(C(F)(F)F)C(F)(F)F)CC1)C2 [Example 19, 2-(2-(2-((4-(((1,1,1,3,3,3-Hexafluoropropan-2-yl)oxy)carbonyl)piperazin-1-yl)methyl)-5-(trifluoromethyl)phenyl)-2,8-diazaspiro[4.5]decan-8-yl)acetic Acid] | ≥ 75 | ≤ 0.1 | 1 to 10 | ≥ 75 | 0 to 25 | 0 to 25 | ≤ 0.1
O=C(O)CN1CCCC12CCN(c1cc(C(F)(F)F)ccc1CN1CCN(C(=O)OC(C(F)(F)F)C(F)(F)F)CC1)CC2 [Example 20, 2-(8-(2-((4-(((1,1,1,3,3,3-Hexafluoropropan-2-yl)oxy)carbonyl)piperazin-1-yl)methyl)-5-(trifluoromethyl)phenyl)-1,8-diazaspiro[4.5]decan-1-yl)acetic Acid] | ≥ 75 | ≤ 0.1 | 1 to 10 | ≥ 75 | 0 to 25 | 0 to 25 | 
O=C(O)CN1CC2(CCN(c3cc(C(F)(F)F)ccc3CN3CCN(C(=O)OC(C(F)(F)F)C(F)(F)F)CC3)CC2)C1 [Example 21, 2-(7-(2-((4-(((1,1,1,3,3,3-Hexafluoropropan-2-yl)oxy)carbonyl)piperazin-1-yl)methyl)-5-(trifluoromethyl)phenyl)-2,7-diazaspiro[3.5]nonan-2-yl)acetic Acid] | ≥ 75 | ≤ 0.1 | 1 to 10 | ≥ 75 | 0 to 25 | 0 to 25 | ≤ 0.1

The remaining lines, values ahead:

inhibition at 1 µM (MAGL [1]) [%] | IC50 (MAGL [1]) [µM] | IC50 (ABHD6 [2]) [µM] | inhibition at 1 µM (MAGL [3]) [%] | inhibition at 1 µM (ABHD6 [4]) [%] | inhibition at 5 mg/kg (MAGL [5]) [%] | IC50 (MAGL [3]) [µM] | Structure (SMILES)
≥ 75 | ≤ 0.1 | 1 to 10 | ≥ 75 | 25 to 50 | 25 to 50 |  | O=C(O)[C@@H]1CC(c2cc(C(F)(F)F)ccc2CN2CCN(C(=O)OC(C(F)(F)F)C(F)(F)F)CC2)CN1 (stereo partly drawn) [Example 7, (2S)-4-(2-((4-(((1,1,1,3,3,3-Hexafluoropropan-2-yl)oxy)carbonyl)piperazin-1-yl)methyl)-5-(trifluoromethyl)phenyl)pyrrolidine-2-carboxylic Acid]
≥ 75 | ≤ 0.1 | 1 to 10 | ≥ 75 | 25 to 50 | ≥ 75 |  | O=C(O)c1ccsc1-c1cc(C(F)(F)F)ccc1CN1CCN(C(=O)OC(C(F)(F)F)C(F)(F)F)CC1 [Example 8, 2-(2-((4-(((1,1,1,3,3,3-Hexafluoropropan-2-yl)oxy)carbonyl)piperazin-1-yl)methyl)-5-(trifluoromethyl)phenyl)thiophene-3-carboxylic Acid]
≥ 75 | ≤ 0.1 | 1 to 10 | ≥ 75 | 50 to 75 | 25 to 50 |  | Cc1cc(C(=O)O)sc1-c1cc(C(F)(F)F)ccc1CN1CCN(C(=O)OC(C(F)(F)F)C(F)(F)F)CC1 [Example 9, 5-(2-((4-(((1,1,1,3,3,3-Hexafluoropropan-2-yl)oxy)carbonyl)piperazin-1-yl)methyl)-5-(trifluoromethyl)phenyl)-4-methylthiophene-2-carboxylic Acid]
≥ 75 | ≤ 0.1 | 1 to 10 | ≥ 75 | ≥ 75 | 0 to 25 |  | O=C(O)c1csc(-c2cc(C(F)(F)F)ccc2CN2CCN(C(=O)OC(C(F)(F)F)C(F)(F)F)CC2)c1 [Example 10, 5-(2-((4-(((1,1,1,3,3,3-Hexafluoropropan-2-yl)oxy)carbonyl)piperazin-1-yl)methyl)-5-(trifluoromethyl)phenyl)thiophene-3-carboxylic Acid]
